By IC50 is commonly meant the concentration that inhibits the measured activity by half. The low end stands for greater potency in that assay, the high end for weaker potency in that assay.

The subject of this assay is ULK. As to the kind of experiment: ULK radiometric assay (33P incorporation onto MBP substrate, glass fiber capture filter). To be noted: ULK Biochemical activity; 20 uM ATP, 0.2 mg/mL MBP; averages of at least two independent experiments. Here is the method: ULK activity was measured using a radiometric assay, to measure the incorporation of radiolabelled ^33P onto MBP substrate using a glass fiber capture filter method. Reaction conditions were 0.2 mg/mL MBP, 20 uM ATP (0.25 μCi/well), 50 mM Tris HCl, pH7.5, 10 mM MgCl2, 0.1% beta-mercaptoethanol, 0.1 mM EGTA, 0.01% BSA. Ten point Half log Compound dilution series were prepared in 100% DMSO and added to the reaction to give final assay concentration of 10% DMSO. Compounds were tested in duplicate and values normalized to 10% DMSO only controls. The data were fitted to a four parameter fit equation and the IC50 values shown are averages of at least two independent experiments.
The compound `O=C(NCCCNc1nc(Nc2ccc3c(c2)CCNC3)ncc1C(F)(F)F)C1CCC1` [Example 62, N-(3-((2-((1,2,3,4-tetrahydroisoquinolin-6-yl)amino)-5-(trifluoromethyl)pyrimidin-4-yl)amino)propyl)cyclobutanecarboxamide] gave a half-inhibitory concentration (IC50) of under 200 nM. On to `CN(C)CCOc1ccc(Cl)c(Nc2ncc(C(F)(F)F)c(NCCCN3CCCCC3=O)n2)c1` [Example 58, 1-[3-[[2-[2-Chloro-5-[2-(dimethylamino)ethoxy]anilino]-5-(trifluoromethyl)pyrimidin-4-yl]amino]propyl]piperidin-2-one], for which the IC50 lay within 200 to 1000 nM. The compound `FC(F)(F)c1cnc(Nc2ccc3c(c2)CCNC3)nc1NCC1CNCCO1` (centres unmarked) [Example 63, N4-(morpholin-2-ylmethyl)-N2-(1,2,3,4-tetrahydroisoquinolin-6-yl)-5-(trifluoromethyl)pyrimidine-2,4-diamine] had an IC50 of under 200 nM. Consider `CCOc1nn(C)cc1Nc1ncc(C(F)(F)F)c(NCCCN2CCCCC2=O)n1` [Example 46, 1-[3-[[2-[(3-Ethoxy-1-methyl-pyrazol-4-yl)amino]-5-(trifluoromethyl)pyrimidin-4-yl]amino]propyl]piperidin-2-one], for which the IC50 fell in the range of 200 to 1000 nM. The value for `O=C1CCCCN1CCCNc1nc(Nc2ccc3c(c2)COCC3)ncc1C(F)(F)F` [Example 25, 1-[3-[[2-(Isochroman-7-ylamino)-5-(trifluoromethyl)pyrimidin-4-yl]amino]propyl]piperidin-2-one] was under 200 nM.

On to `COc1ccc(N2CCOCC2)cc1Nc1ncc(C(F)(F)F)c(NCCCN2CCCCC2=O)n1` [Example 32, 1-[3-[[2-(2-Methoxy-5-morpholino-anilino)-5-(trifluoromethyl)pyrimidin-4-yl]amino]propyl]piperidin-2-one], for which the concentration for half-maximal inhibition (IC50) is at least 1000 nM. The value for `COc1cc2c(cc1Nc1ncc(C(F)(F)F)c(NCCC(=O)N3CCOCC3)n1)CNCC2` [Example 79, 3-[[2-[(6-Methoxy-1,2,3,4-tetrahydroisoquinolin-7-yl)amino]-5-(trifluoromethyl)pyrimidin-4-yl]amino]-1-morpholino-propan-1-one] was 200 to 1000 nM; that for `COc1cc2c(cc1Nc1ncc(C3CC3)c(NCCCN3CCCCC3=O)n1)CNCC2` [Example 75, 1-[3-[[5-Cyclopropyl-2-[(6-methoxy-1,2,3,4-tetrahydroisoquinolin-7-yl)amino]pyrimidin-4-yl]amino]propyl]piperidin-2-one] was 200 to 1000 nM. Under `CN(C)Cc1cccc(Nc2ncc(C3CC3)c(NCCCN3CCCCC3=O)n2)c1` [Example 13, 1-(3-(5-Cyclopropyl-2-(3-((dimethylamino)methyl)phenylamino)pyrimidin-4-ylamino)propyl) piperidin-2-one] stands under 200 nM; under `COc1ccc(N2CCNCC2)cc1Nc1ncc(C(F)(F)F)c(NCCCN2CCCCC2=O)n1` [Example 22, 4-[4-methoxy-3-[[4-[3-(2-oxo-1-piperidyl)propylamino]-5-(trifluoromethyl)pyrimidin-2-yl]amino]phenyl]piperazine], at least 1000 nM. In the case of `O=C1CCCCN1CCCNc1nc(Nc2cc3c(cc2Cl)CNCC3)ncc1C(F)(F)F` [Example 1, 1-(3-(2-(7-Chloro-1,2,3,4-tetrahydroisoquinolin-6-ylamino)-5(trifluoromethyl)pyrimidin-4-ylamino)propyl) piperidin-2-one], the IC50 was under 200 nM. On to `CN(C)CCCNc1nc(Nc2cccc(OC3CCN(C)CC3)c2)ncc1C1CC1` [Example 84, 5-Cyclopropyl-N4-(3-(dimethylamino)propyl)-N2-(3-(1-methylpiperidin-4-yloxy)phenyl)pyrimidine-2,4-diamine], for which the half-inhibitory concentration (IC50) was at least 1000 nM. Consider `O=C1CCCCN1CCCNc1nc(Nc2cc(CO)ccc2Cl)ncc1C(F)(F)F` [Example 26, 1-[3-[[2-[2-Chloro-5-(hydroxymethyl)anilino]-5-(trifluoromethyl)pyrimidin-4-yl]amino]propyl]piperidin-2-one], for which the IC50 was under 200 nM. `FC(F)(F)c1cnc(Nc2ccc(N3CCOCC3)cc2)nc1NCC1CNCCO1` (centres unmarked) [Example 90, N2-(4-morpholinophenyl)-N4-(morpholin-2-ylmethyl)-5-(trifluoromethyl)pyrimidine-2,4-diamine] showed a 50% inhibitory concentration (IC50) of 200 to 1000 nM. `CN1CCc2cc(Nc3ncc(C(F)(F)F)c(NCCCN4CCCC4)n3)ccc2C1` [Example 6, N2-(2-methyl-1,2,3,4-tetrahydroisoquinolin-6-yl)-N4-(3-(pyrrolidin-1-yl)propyl)-5-(trifluoromethyl)pyrimidine-2,4-diamine]: the IC50 lay within 200 to 1000 nM.

The compound `COc1cc2c(cc1Nc1ncc(C3CC3)c(NCCCNC(=O)C3CCC3)n1)CNCC2` [Example 74, N-[3-[[5-cyclopropyl-2-[(6-methoxy-1,2,3,4-tetrahydroisoquinolin-7-yl)amino]pyrimidin-4-yl]amino]propyl]cyclobutanecarboxamide] showed a concentration for half-maximal inhibition (IC50) of at least 1000 nM.

The compound `COc1cc2c(cc1Nc1ncc(C(F)(F)F)c(NCCCN3CCCCC3=O)n1)C(=O)NCC2` [Example 33, 6-Methoxy-7-[[4-[3-(2-oxo-1-piperidyl)propylamino]-5-(trifluoromethyl)pyrimidin-2-yl]amino]-3,4-dihydro-2H-isoquinolin-1-one] returned an IC50 of at least 1000 nM.

In turn, `CN1CCc2cc(Nc3ncc(C(F)(F)F)c(NCCCN4CCCCC4=O)n3)ccc2C1` [Example 7, 1-(3-((2-((2-Methyl-1,2,3,4-tetrahydroisoquinolin-6-yl)amino)-5-(trifluoromethyl)pyrimidin-4-yl)amino)propyl)piperidin-2-one] showed a 50% inhibitory concentration (IC50) of under 200 nM. `COCc1ccc(Nc2ncc(C(F)(F)F)c(NCCCN3CCCCC3=O)n2)c(OC)c1` [Example 34, 1-[3-[[2-[2-Methoxy-4-(methoxymethyl)anilino]-5-(trifluoromethyl)pyrimidin-4-yl]amino]propyl]piperidin-2-one]: the IC50 is at least 1000 nM. Compound `CN1CCc2ccc(Nc3ncc(C4CC4)c(NCCCN4CCCCC4=O)n3)cc2C1` [Example 12, 1-(3-((5-Cyclopropyl-2-((2-methyl-1,2,3,4-tetrahydroisoquinolin-7-yl)amino)pyrimidin-4-yl)amino)propyl)piperidin-2-one] came in with a half-maximal inhibitory concentration (IC50) of under 200 nM. `FC(F)(F)c1cnc(Nc2ccc(N3CCOCC3)cc2)nc1NCCC1CCNCC1` [Example 89, N2-(4-morpholinophenyl)-N4-[2-(4-piperidyl)ethyl]-5-(trifluoromethyl)pyrimidine-2,4-diamine] displayed a half-inhibitory concentration (IC50) of 200 to 1000 nM. `COc1cc(C(=O)N2CCOCC2)ccc1Nc1ncc(C(F)(F)F)c(NCCCN2CCCCC2=O)n1` [Example 38, 1-[3-[[2-[2-Methoxy-4-(morpholine-4-carbonyl)anilino]-5-(trifluoromethyl)pyrimidin-4-yl]amino]propyl]piperidin-2-one] showed an IC50 of at least 1000 nM. With `CNCc1ccc(OC)c(Nc2ncc(C(F)(F)F)c(NCCCN3CCCCC3=O)n2)c1` [Example 60, 1-[3-[[2-[2-Methoxy-5-(methylaminomethyl)anilino]-5-(trifluoromethyl)pyrimidin-4-yl]amino]propyl]piperidin-2-one], the IC50 is under 200 nM.

In turn, `COc1cc(C(=O)N2CCN(C)CC2)ccc1Nc1ncc(C(F)(F)F)c(NCCCN2CCCCC2=O)n1` [Example 41, 1-[3-[[2-[2-Methoxy-4-(4-methylpiperazine-1-carbonyl)anilino]-5-(trifluoromethyl)pyrimidin-4-yl]amino]propyl]piperidin-2-one] showed a concentration for half-maximal inhibition (IC50) of 200 to 1000 nM. `FC(F)(F)c1cnc(Nc2cnn(C3CCNC3)c2)nc1NCc1cc[nH]n1` (centres unmarked) [Example 85, N4-(1H-pyrazol-3-ylmethyl)-N2-(1-pyrrolidin-3-ylpyrazol-4-yl)-5-(trifluoromethyl)pyrimidine-2,4-diamine] had an IC50 of under 200 nM.

Take `N[C@H]1CC[C@H](Nc2nc(Nc3ccc(N4CCOCC4)cc3)ncc2C(F)(F)F)CC1` [Example 88, N4-(4-aminocyclohexyl)-N2-(4-morpholinophenyl)-5-(trifluoromethyl)pyrimidine-2,4-diamine]: the IC50 was 200 to 1000 nM.

Take `COc1cc2c(cc1Nc1ncc(C(F)(F)F)c(NCCCN3CCCCC3=O)n1)CCNC2` [Example 4, 1-(3-((2-((7-Methoxy-1,2,3,4-tetrahydroisoquinolin-6-yl)amino)-5-(trifluoromethyl)pyrimidin-4-yl)amino)propyl)piperidin-2-one]: the IC50 was under 200 nM. `CN1CCC(O)(c2ccc(Nc3ncc(C4CC4)c(NCCCN4CCCCC4=O)n3)cc2)CC1` [Example 14, 1-(3-((5-Cyclopropyl-2-((4-(4-hydroxy-1-methylpiperidin-4-yl)phenyl)amino)pyrimidin-4-yl)amino)propyl)piperidin-2-one] displayed a half-maximal inhibitory concentration (IC50) of under 200 nM. With `CN1CCc2cc(Nc3ncc(C4CC4)c(NC4CC4)n3)ccc2C1` [Example 17, N4,5-dicyclopropyl-N2-(2-methyl-1,2,3,4-tetrahydroisoquinolin-6-yl)pyrimidine-2,4-diamine], the IC50 is under 200 nM.

Compound `O=C1CCCCN1CCCNc1nc(Nc2ccc(N3CCOCC3)cc2Cl)ncc1C(F)(F)F` [Example 54, 1-[3-[[2-(2-Chloro-4-morpholino-anilino)-5-(trifluoromethyl)pyrimidin-4-yl]amino]propyl]piperidin-2-one] showed an IC50 of under 200 nM. The value for `CN1CCC(Oc2cccc(Nc3ncc(C4CC4)c(NCCCN4CCCCC4=O)n3)c2)CC1` [Example 16, 1-(3-((5-Cyclopropyl-2-((3-((1-methylpiperidin-4-yl)oxy)phenyl)amino)pyrimidin-4-yl)amino)propyl)piperidin-2-one] was under 200 nM; that for `O=C1CCCN1CCCNc1nc(Nc2ccc3c(c2)CNCC3)ncc1C(F)(F)F` [Example 77, 1-[3-[[2-(1,2,3,4-Tetrahydroisoquinolin-7-ylamino)-5-(trifluoromethyl)pyrimidin-4-yl]amino]propyl]pyrrolidin-2-one] was at least 1000 nM.

The values are drawn from patent US20240208934A1, “ULK1/2 INHIBITORS AND THEIR USE THEREOF” (LifeArc, priority 2021, published 2024).
